From patent US6511848B2, “Process for producing and multiplying lymphocytes” (Winfried Albert, priority 1996, dated 2003)

Tests used:
[1] = test system: killer T cells; experiment: Multiplication of killer T cells in serum-free DF medium; assay type: cell-based, human
Method: Mononuclear cells from peripheral blood (PBMNC) of human donors are isolated by means of gradient centrifugation (lymphocyte separation medium, BM), washed twice with phosphate-buffered saline solution and incubated at a density of 5-10×10^6 cells/ml DF medium according to Thiele and Lipsky (J. Immunol. 136 (1986) 1038-1048) with 250 μM leucyl-leucine-methyl ester (BM) for 20 minutes at room temperature. After washing with DF medium the cells are cultured at 37° C. in 8% CO2 atmosphere at a density of 1-2×10^6 per ml DF medium together with irradiated (2000 rad) HB654 cells or HB617 cells (stimulator cells; 2-5×10^5 per ml). On day 5-6 of the co-culture half to two thirds of the culture medium is renewed and irradiated stimulator cells (2-5×10^5 per ml) are added again. From day 8-10 after starting the co-culture, when all stimulator cells have been destroyed by the cytotoxic activity of the killer T cells, the killer T cells are used for the following examples. […]

[2] = test system: Mononuclear cells from peripheral blood (PBMNC); experiment: Multiplication of NK and T lymphocytes from mononuclear cells of human blood in serum-free medium; assay type: cell-based; settings: serum-free DF medium, single cytokine
Description: Mononuclear cells from peripheral blood (PBMNC) of a human donor are isolated by means of gradient centrifugation (lymphocyte separation medium, Boehringer Mannheim GmbH, Germany (BM)), washed twice with phosphate-buffered saline solution and taken up in DF medium at a density of 1×10^6 cells/ml and cultured in three separate preparations which are denoted A, B and C. […] Half of the culture medium (+cytokine(s)) is renewed every second day and the cell count is adjusted to ca. 1×10^6 cells/ml during the first 7 days and subsequently to ca. […].

`CC[C@@H]1/C=C(\C)C[C@H](C)C[C@H](OC)[C@H]2O[C@@](O)(C(=O)C(=O)N3CCCC[C@H]3C(=O)O[C@H](/C(C)=C/[C@@H]3CC[C@@H](O)[C@H](OC)C3)[C@H](C)[C@@H](O)CC1=O)[C@H](C)C[C@@H]2OC` [Ascomycin, reference compound] was tested, and the “multiplication of killer T cells (in words)” value ([1]; additive alone, without growth factor) was “no multiplication”.
For “IL-15: Human recombinant IL-15 (R & D Systems), 15 ng/ml, lymphocyte growth factor”, the “doubling cycles after which proliferation stagnates” value ([1]; growth factor alone) was 3 doubling cycles.
In the case of TGFβ1: rh TGFβ1 (BM), 4 ng/ml, the “growth behaviour of the cells (in words)” value [2] is reported as “do not multiply”.
